{"source": "patent US6069167A", "about": "“Use of antioxidant agents to treat cholestatic liver disease” (priority 1997, dated 2000)", "key": {"[1]": {"system": "hepatic mitochondria", "assay": "Lipid-conjugated dienes of hepatic mitochondria (lipid peroxidation)", "format": "in vivo, male Sprague-Dawley rats", "conditions": "for Lipid-conjugated dienes: 4 h", "description": "Hepatic Mitochondria Isolation\nMitochondria were isolated from 10 grams of fresh liver from individual rats by a modification of a previously described method^27. Briefly, the liver was gently homogenized in a loose-fitting Potter-Elvehjm homogenizer in buffer containing 225 mM mannitol, 70 mM sucrose, 3 mM KH2 PO4, 2mM EDTA, 0.1% BSA, 5 mM MgCl2 (pH 7.0), filtered through cheesecloth and centrifuged at 400g×10 minutes. The supernatant was centrifuged at 10,000g for 10 minutes. The supernatant was aspirated and the pellet resuspended and centrifuged at 10,000g for 10 minutes. The resulting mitochondrial pellet was resuspended in 15 ml of buffer, divided into three tubes and added to digitonin (Sigma Chemical Company, St Louis, Mo., 0.29 mg for each gram of original liver) on wet ice×20 minutes, in order to minimize any contamination by lysosomes^28. The resulting mitochondrial preparation was washed two times in the original buffer and centrifuged at 10,000g for 10 minutes. Samples of the pellet were taken for enzyme marker analysis. Two more washes were then performed using a buffer containing 50 mM MOPS/100 mM KCI, yielding the final mitochondrial pellet.\nFresh mitochondria were analyzed for lipid peroxidation as an index of oxidant damage by the lipid-conjugated diene method of Recknagel and Ghoshal^35 with the modification of Bacon et al^36. Briefly, lipids were extracted from mitochondria pellets with chloroform and methanol (2:1, vol/vol), and the lipid in chloroform was dried under a stream of oxygen-free nitrogen^27. The dried lipid was redissolved in 1.5 ml of spectrophotometric grade cyclohexane. Absorbance from 220 to 275 nm was recorded against a cyclohexane blank on a Lambda 2 UV/is Spectrometer (Perkin-Elmer Corp., Norwalk, Conn.). Lipid concentration was approximately 0.5 mg/mi of cyclohexane. After the UV measurements, a 250 μl aliquot from each sample was analyzed for total lipid content by the method of Chiang et al.^37, and absorbance measurements were normalized to a denominator of 1.0 mg lipid per ml of cyclohexane. Lipid peroxidation was estimated by calculating the difference in absorption at 233 nm (the peak absorbance for conjugated dienes) between each rat and the mean of the values from control rats.\nBecause serum AST and ALT concentrations peaked at 4 hours, further evaluation of liver injury was performed at that time point Total concentrations (conjugated+free bile acids) of individual bile acids were measured in serum obtained at 4 hours by gas chromatography-mass spectroscopy (GC-MS), as previously described^30. Briefly, after serum samples were extracted with the addition of the internal standard 7-alpha, 12-alpha, dihydroxy-5 beta cholanic acid, trimethylsilyl esterification was performed. Individual bile acids were then quantified by GC or GC-MS using a Hewlett-Packard 5790 flame ionization detector equipped with a 30 meter DB-1 capillary column with internal diameter of 0.25 mm and a film thickness of 0.25 micrometers (J & W Scientific, Folsom, Calif.). For GC-MS measurements, a Hewlett-Packard 5970-A mass selective detector operating in selective ion monitoring mode was used. Results were expressed as μmol/L for each individual bile acid.\nRats were divided into two treatment groups. One group was pretreated with parenteral Vitamin E (all-rac-alpha tocopherol, Ephynal, Hoffmann-LaRoche,Nutley, N.J.). The other group was not pretreated. […]"}, "[2]": {"system": "TCDC hepatic toxicity", "format": "in vivo, male Sprague-Dawley rats", "description": "Young adult male Sprague-Dawley rats (150-180 gram weight) purchased from Sasco, Inc. (Omaha, Nebr.) were fed Purina Lab Chow (Ralston Purina Co., Chicago, Ill.) ad libitum for 2-3 weeks and housed in polyethylene cages with stainless steel tops on a 12-hour light-dark cycle. All rats received humane care in compliance with the guidelines of the Animal Use in Research Committee of the University of Colorado Health Sciences Center. […] TCDC is a conjugate of the bile acid most implicated in cholestatic liver injury9,11,12. TCDC was solubilized in 5% dextrose, 10% BSA, and 0.45% normal saline. TCDC was administered while rats were under light methoxyflurane anesthesia as an intravenous bolus of the desired dose in 1 to 2 minutes through the tail vein. TCDC dosing was performed between 7 and 9 am. […] Rats were divided into two treatment groups. One group was pretreated with parenteral Vitamin E (all-rac-alpha tocopherol, […], Hoffmann-LaRoche,Nutley, N.J.). The other group was not pretreated. These rats then received either vehicle or TCDC (10 μmol/[…]) by tail vein injection (as described in Example 1). […] All i.p. injections were administered under light methoxyflurane anesthesia. Following the vitamin E or saline injections, rats were randomly assigned to receive a tail vein bolus injection of either TCDC or vehicle. Rats were sacrificed four hours later and serum was analyzed for AST, ALT, total bilirubin and alkaline phosphatase. […] The serum alpha tocopherol:total lipids ratio (mg/gm) was calculated as an additional index of vitamin E status^41."}, "[3]": {"assay": "in vivo", "parameters": "species or system male Sprague-Dawley rats", "conditions": "rat", "description": "Rats were divided into two treatment groups. One group was pretreated with parenteral Vitamin E (all-rac-alpha tocopherol, […], Hoffmann-LaRoche,Nutley, N.J.). The other group was not pretreated. These rats then received either vehicle or TCDC (10 μmol/[…]) by tail vein injection (as described in Example 1). […] All i.p. injections were administered under light methoxyflurane anesthesia. Following the vitamin E or saline injections, rats were randomly assigned to receive a tail vein bolus injection of either TCDC or vehicle. Rats were sacrificed four hours later and serum was analyzed for AST, ALT, total bilirubin and alkaline phosphatase. […] The serum alpha tocopherol:total lipids ratio (mg/gm) was calculated as an additional index of vitamin E status^41. The liver was rapidly removed at sacrifice, the hepatic mitochondria were isolated as set forth above and analyzed for lipid-conjugated dienes as described above. A specimen of liver was also immediately frozen, protected from light and stored at -70° C. and subsequently analyzed for alpha tocopherol and reduced ubiquinol-9 by HPLC with electrochemical detection^42. The results were expressed as nmol alpha tocopherol or nmol reduced ubiquinol-9 per gram wet weight of liver."}, "[4]": {"system": "cholestatic disorders", "conditions": "cited from earlier work"}, "[5]": {"conditions": "parenteral vitamin E pretreatment, rats receiving TCDC"}}, "note": "Read-outs that look alike come from different tables or passages of the source."}
{"smiles": "Cc1c(C)c2c(c(C)c1O)CCC(C)(CCCC(C)CCCC(C)CCCC(C)C)O2", "note": "(racemic) [Vitamin E, all-rac-alpha tocopherol]", "values": [{"measurement": "Lipid-conjugated dienes", "setting": "[1]; Vitamin E/TCDC, n = 12", "result": "0.13 ± 0.01 delta abs. 233 nm/mg lipid"}, {"measurement": "Lipid-conjugated dienes", "setting": "[1]; Vitamin E/Vehicle, n = 7", "result": "-0.03 ± 0.02 delta abs. 233 nm/mg lipid"}, {"measurement": "Mitochondrial lipid-conjugated dienes, change", "setting": "[1]; vitamin E pretreatment, i.v. TCDC group", "result": "significant reduction"}, {"measurement": "ALT", "setting": "[2]; Vitamin E/TCDC, n = 12, 4 h", "result": "325 ± 78", "unit": "IU/L"}, {"measurement": "AST", "setting": "[2]; Vitamin E/TCDC, n = 12, 4 h", "result": "870 ± 278", "unit": "IU/L"}, {"measurement": "Bilirubin", "setting": "[2]; Vitamin E/TCDC, n = 12, 4 h", "result": "0.2 ± 0.02", "unit": "mg/dL"}, {"measurement": "Decrease in serum ALT", "setting": "[2]; [5]", "result": "approximately 70%"}, {"measurement": "Decrease in serum AST", "setting": "[2]; [5]", "result": "approximately 70%"}, {"measurement": "ALT", "setting": "[2]; rat, in vivo", "result": "61 ± 5", "unit": "IU/L"}, {"measurement": "AST", "setting": "[2]; rat, in vivo", "result": "81 ± 2", "unit": "IU/L"}, {"measurement": "Bilirubin", "setting": "[2]; rat, in vivo", "result": "0.2 ± 0.02", "unit": "mg/dL"}, {"measurement": "Hepatic injury and mitochondrial lipid peroxidation, overall result", "setting": "[2]; vitamin E pretreatment, TCDC", "result": "attenuated both the hepatic injury and the severity of mitochondrial lipid peroxidation"}, {"measurement": "Hepatic alpha tocopherol concentrations, change", "setting": "[3]", "result": "significant increases"}, {"measurement": "Serum vitamin E concentrations, change", "setting": "[3]", "result": "significant increases"}, {"measurement": "Serum vitamin E:total lipid ratios, change", "setting": "[3]", "result": "significant increases"}, {"measurement": "Serum alpha tocopherol", "setting": "[3]; 4 h", "result": "13.2 ± 0.7", "unit": "µg/mL"}, {"measurement": "concentration at 4 h", "setting": "[3]; Serum alpha tocopherol", "result": "9900 ± 700", "unit": "ng/mL"}]}
{"smiles": "C[C@H](CCC(=O)O)[C@H]1CC[C@H]2[C@@H]3[C@@H](O)C[C@@H]4C[C@H](O)CC[C@]4(C)[C@H]3CC[C@]12C", "note": "[ursodeoxycholic acid]", "values": [{"measurement": "Hepatoprotective and choleretic effects", "setting": "[4]", "result": "hepatoprotective as well as choleretic effects"}]}
